Assays:
[1] = biological target: T1, ABA receptor (Homo sapiens, UniProt Q9NS86); conditions: value used in Cheng-Prusoff equation (Yamazaki e al., 2003); cited from earlier work
T1 construct: Human granulocytes (7 x 10^6 per point), after ON incubation in complete DMEM/F12, were incubated in triplicate; endogenous in cells; host or cells: human granulocytes (intact cells)
T1 sequence (Q9NS86 1-450): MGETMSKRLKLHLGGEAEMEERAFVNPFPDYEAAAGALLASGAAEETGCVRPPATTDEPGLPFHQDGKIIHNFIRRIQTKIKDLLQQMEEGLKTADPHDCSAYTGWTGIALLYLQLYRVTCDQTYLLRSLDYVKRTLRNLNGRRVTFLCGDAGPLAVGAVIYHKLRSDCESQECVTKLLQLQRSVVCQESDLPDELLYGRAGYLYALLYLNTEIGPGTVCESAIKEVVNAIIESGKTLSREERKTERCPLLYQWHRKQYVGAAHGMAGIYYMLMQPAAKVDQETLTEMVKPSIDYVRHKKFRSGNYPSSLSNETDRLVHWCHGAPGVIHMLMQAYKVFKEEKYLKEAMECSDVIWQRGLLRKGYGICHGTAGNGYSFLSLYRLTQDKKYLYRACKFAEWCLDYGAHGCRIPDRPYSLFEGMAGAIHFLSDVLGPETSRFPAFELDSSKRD

[2] = tested on: granulocytes; experiment: Inhibition of ABA-induced chemotaxis (granulocyte migration, ChemoTx); assay type: cell-based, human
Method: After ON (overnight) incubation in complete DMEM/F12, granulocytes were washed in HBSS and then were resuspended at the concentration of 1x10^7 cells/ml in chemotaxis buffer (HBSS:PBS:5% albumin; 39:16:1).
Chemotaxis was carried out on 96-well plates ChemoTx system microplates (Neuro Probe, Inc., Gaithersburg, MD, U.S.A.) with a polycarbonate filter with 3 µm-diameter pores. The compound prepared according to example 1 was diluted in chemotaxis buffer at various concentrations (5 µM, 100 nM, 1 nM, 0.1 nM) and was added, either alone or together with a solution of 1 µM ABA to the bottom of the plate. The suspension of the cells (25 µl/well) was added to the filter and the plate was incubated for 90 minutes at 37 °C. The migrated cells were transferred to a white 96-well plate and were counted with 60 µl of a solution containing 0.2 % (v/v) of Nonidet P40 and 1 µM Sitox green. After a 20-minute incubation at 37 °C, the fluorescence was measured with Fluostar OPTIMA fluorometer (excitation wavelength λexc = 485 nm and emission wavelength λemis = 520 nm) and the cell number was computed by using a standard cellular curve obtained from serial diltion cellular suspension of granulocytes. The result is expressed as the "chemotactic index" (CI), which corresponds to the ratio of the number of cells migrated towards the chemoattractant divided by the number of cells migrated towards the substrate). A chemotactic index higher than 1 is indicative of chemoattraction of cells. The test was carried out three times in sextuplicate.

[3] = tested on: human granulocytes; experiment: Production of reactive oxygen species (ROS), H2DCFDA fluorescence; assay type: cell-based
Method: Human granulocitytes, after ON incubation in complete DMEM/F12, were resuspended at 1x10^7/ml in HBSS and spiked with the fluorescent probe (10 µM), specific for ROS determination, 2',7'-dichlorodihydrofluorescein diacetate (H2DCFDA), for 30 min at 37 °C.
They were subsequently washed twice with HBSS and resuspended at 1x10^6 cells/ml in HBSS and then were kept at room temperature for approximately 30 minutes.
The cells (100 µl) were added to a 96-well plate pre-loaded with ABA 1 µM, either alone or with increasing concentrations of the compound prepared according to example 1.
The increase in fluorescence was measured at 10-sec intervals for 10 minutes, with Fluostar OPTIMA fluorometer (λexc: 485; λemis: 520).
The experiment was carried out three times in triplicate.
Human granulocutes stimulated with 1 µM ABA become activated, and produce quite large amounts of reactive oxygen species (ROS) (Bruzzone, jbc 2007). The results were expressed as the average of the results obtained from three independent experiments, from which the background value, obtained from the control, had been subtracted. TABLE 4. Inhibition of ROS production, in human granulocytes stimulated with ABA, by compound prepared according to example 1.

[4] = tested on: 1321 N1 (human astrocytoma); experiment: Cytotoxicity, CellTiter 96 AQueous One Solution assay; assay type: cell-based; conditions: 24 hrs
[5] = Stability after extraction from human plasma (HPLC-MS); assay type: in vitro ADME; conditions: for Stability after extraction (amount found): Plasma, 10 µM
Method: Compound prepared according to example 1 was tested for stability at 10 µM concentration in deionized water, phosphate buffer (HBSS with calcium and magnesium) and human plasma for 0 and after 24 hrs at 37 °C, by carrying out the extraction as described in Materials and Methods, and subsequent HPLC-MS analysis for the analyte of interest.
For stability tests, to 2 ml of deionized water, HBSS or human plasma, the compound of example 1 (10 µM) and 5,000 cpm of [^3H]ABA were added, for the purpose of evaluating the recovery after the extraction procedure. The so prepared samples were exctracted at time 0 and after 24 hrs.
For the extraction, 8 ml was added of distilled methanol (methanol/water : 80/20 vol/vol) and the mixture was kept at -20 °C overnight.
The following day the samples were centrifuged at 800xg for 10 minutes and the supernatant was concentrated to dryness by Rotavapor. The reconstituted aqueous solution was acidified at pH 2.6 with 10 % trifluoroacetric acid (TFA) and was extracted three times with diethyl ether (diethyl ether/water: 1:1 vol/vol).
The ethereal phase was finally removed by Rotavapor and the extraxt was resuspended in 1 ml of HBSS; 8 µl of such solution was analysed by HPLC-MS, and 100 µl was used for radioactivity counting by a Packard β-counter in order to compute extraction recovery.
The HPLC-MS system used consists of an Agilent 1100 capillary chromatograph equipped with a diode array detector (DAD) and coupled with an Agilent 1100 series LC/MSD Trap mass spectometer with orthogonal electrospray source and a ionic-trap analyser.
The detection wavelength was 254 nm and the MS spectrum was recorded in negative ions mode in an m/z range of 50-300.
The amount of compound of example 1 in the extracts and supernatants was computed as the area of the peak under the extracted ion current m/z 279.3, normalized for the ionization efficiency of internal standard (hexadeuterated ABA) used for HPLC-MS analysis. Furthermore, the concentration was computed using the recovery rates obtained from the evaluation of counts per minute (cpm) of extracted [^3H]ABA.

SMILES: CC1=CC(=O)CC(C)(C)C1(O)/C=C/C(C)=C\C(=O)O (racemic) [ABA, (2Z,4E)-5-(1-hydroxy-2,6,6-trimethyl-4-oxo-2-cyclohexen-1-yl)-3-methyl-2,4-pentadienoic acid, reference compound]
- Kd [1]: 11 nM
- CI±SD (chemotactic index) ([2]; ABA 1 µM alone): 1.63±0.10
- Increase in fluorescence (delta OD)±SD ([3]; ABA 1 µM alone): 1238±8.7 delta OD

SMILES: CC(=C/C(=O)O)/C=C/C1(O)C(C)(C)CC(=O)C2OC21C (stereo not drawn) [Example 1, 2'α,3'α-dihydro-2'α,3'α-epoxyabscisic acid]
- number of cells ([4]; 1 nM): 16199
- vitality % ([4]; 1 nM): 89%
- number of cells ([4]; 10 nM): 18785
- vitality % ([4]; 10 nM): 102%
- number of cells ([4]; 1 µM): 19446
- vitality % ([4]; 1 µM): 106%
- number of cells ([4]; 100 µM): 22252
- vitality % ([4]; 100 µM): 120%
- Stability after extraction (amount found) ([5]; 0 hr, equals extraction yield, listed as compound of example 1): 56%
- Stability after extraction (amount found) ([5]; 0 hr, equals extraction yield, listed as compound prepared according to example 1): 56%
- Stability after extraction (amount found) ([5]; 24 hrs at 37 °C): 49%
- degradation ([5]; in plasma, 0 vs 24 hrs): 7%
- CI±SD (chemotactic index) ([2]; ABA 1 µM + compound 0.1 nM): 1.37±0.05
- CI±SD (chemotactic index) ([2]; ABA 1 µM + compound 1 nM): 1.32±0.05
- CI±SD (chemotactic index) ([2]; ABA 1 µM + compound 100 nM): 1.12±0.04
- CI±SD (chemotactic index) ([2]; ABA 1 µM + compound 5 µM): 0.78±0.03
- IC50 ([2]; Homo sapiens): ~1 nM
- inhibition at 0.0001 µM ([2]; Homo sapiens, migration towards ABA 1 µM, compound 0.1 nM): 38%
- inhibition at 0.001 µM ([2]; Homo sapiens, migration towards ABA 1 µM, compound 1 nM): 47%
- inhibition at 0.1 µM ([2]; Homo sapiens, migration towards ABA 1 µM, compound 100 nM): 80%
- inhibition at 5 µM ([2]; Homo sapiens, migration towards ABA 1 µM, compound 5 µM): 100%
- Increase in fluorescence (delta OD)±SD ([3]; ABA 1 µM + compound 0.01 nM): 1325±26.5 delta OD
- Increase in fluorescence (delta OD)±SD ([3]; ABA 1 µM + compound 0.5 nM): 680±13.6 delta OD
- Increase in fluorescence (delta OD)±SD ([3]; ABA 1 µM + compound 1 nM): 371±1.9 delta OD
- Increase in fluorescence (delta OD)±SD ([3]; ABA 1 µM + compound 1 µM): 46±0.2 delta OD
- inhibition at 10 pM ([3]; Homo sapiens, ROS production, ABA 1 µM, compound 0.01 nM): 0%
- inhibition at 0.0005 µM ([3]; Homo sapiens, ROS production, ABA 1 µM, compound 0.5 nM): 45%
- inhibition at 0.001 µM ([3]; Homo sapiens, ROS production, ABA 1 µM, compound 1 nM): 70%
- inhibition at 1 µM ([3]; Homo sapiens, ROS production, ABA 1 µM, compound 1 µM): 96%
- IC50 ([3]; Homo sapiens, inhibiting the production of ROS, ABA 1 µM): ~0.5 nM

From patent EP2511272B1, “Synthetic analogues of abscisic acid with anti-inflammatory and insulin release stimulation effects on human cells” (Universita' degli Studi di Genova, priority 2011, dated 2012)
